Measurements as given in PubChem BioAssay AID2060350 (Molecular Pharmacology Branch, DTP, NCI, 2025).

Tested on: PDC 521955-158-R6-J3 spheroids, viability
Assay: Anticancer human tumor 521955-158-R6-J3-PDC patient-derived pancreatic carcinoma cell line growth inhibition [TAK]
Settings: spheroids with HUVEC and MSC; for IC50: curve of first compound; for viability, T/C: stronger effect = lower value
In short: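 Tumor cells were grown as spheroids with HUVEC and hMSC (60:25:15) and treated with targeted agents combined with TAK-243 or ipatasertib. Drugs were tested in half-log steps down from near the clinical Cmax, or from 10 microM where Cmax was unknown.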

[1] = second compound 0.3 µM, first compound 0.0316 µM
[2] = second compound 0.3 µM, first compound 0.1 µM
[3] = second compound 0.3 µM, first compound 0.316 µM
[4] = second compound 0.3 µM, first compound 1 µM
[5] = second compound 0.3 µM, first compound 3.16 µM
[6] = second compound 0.3 µM, first compound 10 µM
[7] = second compound 0.949 µM, first compound 0.0316 µM
[8] = second compound 0.949 µM, first compound 0.1 µM
[9] = second compound 0.949 µM, first compound 0.316 µM
[10] = second compound 0.949 µM, first compound 1 µM
[11] = second compound 0.949 µM, first compound 3.16 µM
[12] = second compound 0.949 µM, first compound 10 µM
[13] = second compound 3 µM, first compound 0.0316 µM
[14] = second compound 3 µM, first compound 0.1 µM
[15] = second compound 3 µM, first compound 0.316 µM
[16] = second compound 3 µM, first compound 1 µM
[17] = second compound 3 µM, first compound 3.16 µM
[18] = second compound 3 µM, first compound 10 µM
[19] = second compound 9.49 µM, first compound 0.0316 µM
[20] = second compound 9.49 µM, first compound 0.1 µM
[21] = second compound 9.49 µM, first compound 0.316 µM
[22] = second compound 9.49 µM, first compound 1 µM
[23] = second compound 9.49 µM, first compound 3.16 µM
[24] = second compound 9.49 µM, first compound 10 µM
[25] = second compound 30 µM, first compound 0.0316 µM
[26] = second compound 30 µM, first compound 0.1 µM
[27] = second compound 30 µM, first compound 0.316 µM
[28] = second compound 30 µM, first compound 1 µM
[29] = second compound 30 µM, first compound 3.16 µM
[30] = second compound 30 µM, first compound 10 µM
[31] = second compound 0.3 µM, first compound 0.000316 µM
[32] = second compound 0.3 µM, first compound 0.001 µM
[33] = second compound 0.3 µM, first compound 0.00316 µM
[34] = second compound 0.3 µM, first compound 0.01 µM
[35] = second compound 0.949 µM, first compound 0.000316 µM
[36] = second compound 0.949 µM, first compound 0.001 µM
[37] = second compound 0.949 µM, first compound 0.00316 µM
[38] = second compound 0.949 µM, first compound 0.01 µM
[39] = second compound 3 µM, first compound 0.000316 µM
[40] = second compound 3 µM, first compound 0.001 µM
[41] = second compound 3 µM, first compound 0.00316 µM
[42] = second compound 3 µM, first compound 0.01 µM
[43] = second compound 9.49 µM, first compound 0.000316 µM
[44] = second compound 9.49 µM, first compound 0.001 µM
[45] = second compound 9.49 µM, first compound 0.00316 µM
[46] = second compound 9.49 µM, first compound 0.01 µM
[47] = second compound 30 µM, first compound 0.000316 µM
[48] = second compound 30 µM, first compound 0.001 µM
[49] = second compound 30 µM, first compound 0.00316 µM
[50] = second compound 30 µM, first compound 0.01 µM
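Also: spheroids exposed to drugs for 7 days before readout.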
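For viability, T/C in this document: 100% = DMSO vehicle control viability.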

`CC(C)(C)c1nc(-c2cccc(NS(=O)(=O)c3c(F)cccc3F)c2F)c(-c2ccnc(N)n2)s1` + CC(C)NCC(C(=O)N1CCN(c2ncnc3c2C(C)CC3O)CC1)c1ccc(Cl)cc1 was tested, and the IC50 (second compound 0.3 µM) was greater than 10000 nM, the IC50 (second compound 0.949 µM) was greater than 10000 nM and the IC50 (second compound 3 µM) was greater than 10000 nM. For the same compound, the IC50 (second compound 9.49 µM) was greater than 10000 nM, the IC50 (second compound 30 µM) was greater than 10000 nM and the viability, T/C [1] was 104%. It also gave a viability, T/C [2] of 128%, a viability, T/C [3] of 136% and a viability, T/C [4] of 129%. It also gave a viability, T/C [5] of 107%, a viability, T/C [6] of 107% and a viability, T/C [7] of 98.7%. It also gave a viability, T/C [8] of 123%, a viability, T/C [9] of 136% and a viability, T/C [10] of 129%. For the same compound, the viability, T/C [11] was 105%, the viability, T/C [12] was 85.8% and the viability, T/C [13] was 91.9%. It also gave a viability, T/C [14] of 110%, a viability, T/C [15] of 117% and a viability, T/C [16] of 119%. It also gave a viability, T/C [17] of 100%, a viability, T/C [18] of 73.8% and a viability, T/C [19] of 84.2%. It also gave a viability, T/C [20] of 97.4%, a viability, T/C [21] of 118% and a viability, T/C [22] of 119%. For the same compound, the viability, T/C [23] was 94.8%, the viability, T/C [24] was 65% and the viability, T/C [25] was 87.9%. The viability, T/C [26] was 83.5%, the viability, T/C [27] was 95.5% and the viability, T/C [28] was 83.8%. It also gave a viability, T/C [29] of 73.2% and a viability, T/C [30] of 68.6%.
`CC(C)CC(NC(=O)CNC(=O)c1cc(Cl)ccc1Cl)B1OC(=O)CC(CC(=O)O)(C(=O)O)O1` (stereo not given) + CC(C)NCC(C(=O)N1CCN(c2ncnc3c2C(C)CC3O)CC1)c1ccc(Cl)cc1 showed an IC50 (second compound 0.3 µM) of 55.9 nM, an IC50 (second compound 0.949 µM) of 54.3 nM and an IC50 (second compound 3 µM) of 49.1 nM. For the same compound, the IC50 (second compound 9.49 µM) was 41.8 nM, the IC50 (second compound 30 µM) was 33.6 nM and the viability, T/C [31] was 86.8%. It also gave a viability, T/C [32] of 92.5%, a viability, T/C [33] of 106% and a viability, T/C [34] of 97.8%. The viability, T/C [1] was 92.9%, the viability, T/C [2] was 6.28% and the viability, T/C [35] was 84.3%. The viability, T/C [36] was 93.8%, the viability, T/C [37] was 97.9% and the viability, T/C [38] was 100%. The viability, T/C [7] was 89.1%, the viability, T/C [8] was 5.88% and the viability, T/C [39] was 86.3%. It also gave a viability, T/C [40] of 90.7%, a viability, T/C [41] of 92.6% and a viability, T/C [42] of 104%. It also gave a viability, T/C [13] of 78.7%, a viability, T/C [14] of 3.93% and a viability, T/C [43] of 92.7%. It also gave a viability, T/C [44] of 92.5%, a viability, T/C [45] of 96.9% and a viability, T/C [46] of 98%. For the same compound, the viability, T/C [19] was 65%, the viability, T/C [20] was 3.75% and the viability, T/C [47] was 82.3%. For the same compound, the viability, T/C [48] was 85.2%, the viability, T/C [49] was 85% and the viability, T/C [50] was 99.5%. It also gave a viability, T/C [25] of 52.7% and a viability, T/C [26] of 2.76%.
`CC(C)n1nc(-c2ccc3oc(N)nc3c2)c2c(N)ncnc21` + CC(C)NCC(C(=O)N1CCN(c2ncnc3c2C(C)CC3O)CC1)c1ccc(Cl)cc1 gave an IC50 (second compound 0.3 µM) greater than 100 nM, an IC50 (second compound 0.949 µM) of 49.5 nM and an IC50 (second compound 3 µM) of 24 nM. It also gave an IC50 (second compound 9.49 µM) of 16.3 nM, an IC50 (second compound 30 µM) of 6.44 nM and a viability, T/C [31] of 83.2%. It also gave a viability, T/C [32] of 85%, a viability, T/C [33] of 87.1% and a viability, T/C [34] of 80.5%. It also gave a viability, T/C [1] of 70.3%, a viability, T/C [2] of 54.1% and a viability, T/C [35] of 70.3%. The viability, T/C [36] was 74.7%, the viability, T/C [37] was 71.9% and the viability, T/C [38] was 77%. For the same compound, the viability, T/C [7] was 56.3%, the viability, T/C [8] was 40.2% and the viability, T/C [39] was 75.6%. For the same compound, the viability, T/C [40] was 76.8%, the viability, T/C [41] was 70% and the viability, T/C [42] was 66.8%. For the same compound, the viability, T/C [13] was 44.6%, the viability, T/C [14] was 29.8% and the viability, T/C [43] was 64%. It also gave a viability, T/C [44] of 67.3%, a viability, T/C [45] of 73.9% and a viability, T/C [46] of 55%. For the same compound, the viability, T/C [19] was 40.3%, the viability, T/C [20] was 26.4% and the viability, T/C [47] was 63.2%. The viability, T/C [48] was 62.5%, the viability, T/C [49] was 54.5% and the viability, T/C [50] was 47.4%. For the same compound, the viability, T/C [25] was 33.4% and the viability, T/C [26] was 23.9%.
Compound `CCCS(=O)(=O)Nc1ccc(F)c(C(=O)c2c[nH]c3ncc(-c4ccc(Cl)cc4)cc23)c1F` + CC(C)NCC(C(=O)N1CCN(c2ncnc3c2C(C)CC3O)CC1)c1ccc(Cl)cc1 has an IC50 (second compound 0.3 µM) greater than 100000 nM, an IC50 (second compound 0.949 µM) greater than 100000 nM and an IC50 (second compound 3 µM) of 64000 nM. It also gave an IC50 (second compound 9.49 µM) of 60100 nM, an IC50 (second compound 30 µM) of 21800 nM and a viability, T/C [3] of 143%. The viability, T/C [4] was 89.8%, the viability, T/C [5] was 96.1% and the viability, T/C [6] was 92.2%. It also gave a viability, T/C (second compound 0.3 µM, first compound 31.6 µM) of 79.8%, a viability, T/C (second compound 0.3 µM, first compound 100 µM) of 176% and a viability, T/C [9] of 98.1%. For the same compound, the viability, T/C [10] was 108%, the viability, T/C [11] was 80.6% and the viability, T/C [12] was 128%. It also gave a viability, T/C (second compound 0.949 µM, first compound 31.6 µM) of 79.5%, a viability, T/C (second compound 0.949 µM, first compound 100 µM) of 159% and a viability, T/C [15] of 93.3%. For the same compound, the viability, T/C [16] was 97.5%, the viability, T/C [17] was 81% and the viability, T/C [18] was 97.4%. It also gave a viability, T/C (second compound 3 µM, first compound 31.6 µM) of 66.6%, a viability, T/C (second compound 3 µM, first compound 100 µM) of 39.5% and a viability, T/C [21] of 94.8%. It also gave a viability, T/C [22] of 98.5%, a viability, T/C [23] of 78.5% and a viability, T/C [24] of 88.9%. The viability, T/C (second compound 9.49 µM, first compound 31.6 µM) was 87.4%, the viability, T/C (second compound 9.49 µM, first compound 100 µM) was 20.4% and the viability, T/C [27] was 106%. It also gave a viability, T/C [28] of 108%, a viability, T/C [29] of 132% and a viability, T/C [30] of 99.8%. For the same compound, the viability, T/C (second compound 30 µM, first compound 31.6 µM) was 20.2% and the viability, T/C (second compound 30 µM, first compound 100 µM) was 7.85%.
